For this assay, the system named is MDA-MB-468 breast. The assay can be described thus: DTP human tumour cell line panel, 48 h.

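96-well plates; 48 h exposure; 5 concentrations. Endpoints by linear interpolation between flanking doses. Not reached: highest tested concentration assigned. Abbreviation: GI50, concentration required for 50% inhibition of growth. TGI is the concentration that stops growth completely.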

By GI50 is commonly meant the concentration that inhibits growth by half. What is called TGI is the concentration at which net growth stops. Consider `CCCC(=O)OCC1OC(n2cnc3c(=S)nc[nH]c32)C(OC(=O)CCC)C1OC(=O)CCC` (centres undefined), for which the GI50 was 0.802 µM and the concentration for total growth inhibition (TGI) was 45 µM.
Regarding `CCCn1c(=S)sc2c1nc(C)n1c(Nc3ccccc3)nnc21`, the GI50 was 2.03 µM and the TGI is 13 µM.
Turning to `Cc1ccc(C(=O)NC(C)C)cc1-c1ccc(C(=O)NCC2CC2)cc1`, the GI50 is over 25 µM and the TGI was over 25 µM.
In the case of `O=C(Nc1ccc(-c2nc(N3CCOCC3)c3cccn3n2)cc1)Nc1cccnc1`, the GI50 was 0.0692 µM and the total growth inhibition concentration (TGI) turned out to be 0.57 µM.
With `COc1ccc(-c2nc(-c3nc4ccc(Cl)cc4[nH]3)c3ccccn23)cc1`, the GI50 was 1.99 µM and the TGI was 6.76 µM.
On to `CN(C)CCCOc1ccc(C(=C(c2ccccc2)C2CCCC2)c2ccc(OCCCN(C)C)cc2)cc1`, for which the GI50 was 1.71 µM and the TGI is 3.97 µM.
For the compound `Cc1ccc2c(c1)Sc1c(ccc3ccccc13)N2`, the GI50 was 56.2 µM and the TGI is over 100 µM.
For `CC1(C)OC2=C(CC1Br)C(=O)C(=O)c1ccccc12` (centres undefined) the same measures were 1.45 µM and 2.82 µM.
In the case of `C[N+]1=C(/C=C/c2ccc(O)c3ncccc23)C(C)(C)c2ccccc21`, the GI50 is 3.05 µM and the concentration for total growth inhibition (TGI) worked out at 10.6 µM.
In the same order, the values of `CC/C=C\C[C@H](F)C/C=C1/C(=O)C=C[C@@H]1C/C=C\CCCC(=O)O` are 3.85 µM and 11.5 µM.
As to `Cc1ccc(C(=O)N(CCCN)C(c2oc3cc(Cl)ccc3c(=O)c2Cc2ccccc2)C(C)C)cc1` (centres undefined), the concentration for 50% growth inhibition (GI50) was under 0.01 µM and the total growth inhibition concentration (TGI) turned out to be 0.904 µM.
With `C=C(C[C@](O)(C(=O)/C=C/c1ccc(Cl)cc1)C(=O)OC)c1ccccc1`, the GI50 was 3.76 µM and the TGI was determined as 13.7 µM.
In the same order, the values of `COc1cc[nH]c1/C=C1\C(=O)Nc2ccc(F)c(C#CC3(O)CCNCC3)c21` are 0.123 µM and 0.6 µM.
For `CNC(=O)c1cc(-c2ccc(NC(=O)Nc3ccc(N4CCN(C)CC4)c(C(F)(F)F)c3)cc2)nc2cccnc12` the same measures were 14.8 µM and 32.9 µM.
Regarding `NC(=O)NS(=O)(=O)c1ccc(N2N=C(C(F)(F)F)CC2c2cc(C(F)(F)F)cc(C(F)(F)F)c2)cc1` (centres undefined), the GI50 is 2.7 µM and the TGI worked out at 10.9 µM.
Take `COc1cc2ncn(-c3cc(OCc4cccs4)c(C(N)=O)s3)c2cc1OC`: the GI50 was 0.654 µM and the TGI came to 6.41 µM.
For `Nc1nc(N(Cc2ccccc2)c2ccccc2)c2cn[nH]c2n1`, the GI50 was 1.96 µM and the concentration for total growth inhibition (TGI) was 6.33 µM.
In the case of `CCCCCCCC[C@@H](O)CC(=O)N[C@@H](CC(N)=O)C(=O)N[C@@H](CCC(N)=O)C(=O)N[C@@H](CC(=O)c1cc(C)cc(O)c1C(=O)c1c(O)cccc1O)CC(C)C`, the concentration for 50% growth inhibition (GI50) was 0.401 µM and the concentration for total growth inhibition (TGI) was 3.14 µM.
As for `C#CCNC(=O)c1cccc2c1cc(C)n2-c1nc2c(c(NCc3ccccc3)n1)CCCC2`, the GI50 is 0.0213 µM and the TGI stood at 0.0546 µM.
In the same order, the values of `COc1ccc2c(c1)CCCN2c1c2ccccc2nc2ccccc12` are 0.386 µM and over 100 µM.
`Nc1nccc(-c2c(-c3ccc(F)cc3)ncn2C2CCC(O)CC2)n1` (centres undefined): the GI50 is 0.822 µM and the total growth inhibition concentration (TGI) amounted to 6.36 µM.
`O=C1C(Cl)=C(NCCN2CCOCC2)C(=O)c2ncccc21`: the GI50 is 1.41 µM and the TGI worked out at 2.91 µM.
For `O=C(Nc1ccncc1)C(=O)c1cn(S(=O)(=O)c2cccc(F)c2)c2ccccc12` the same measures were 1.26 µM and 8.38 µM.
Turning to `COc1ccc(-c2cnc(NC(=O)CCCCCCNC(=O)C(O)(O)C(F)(F)F)s2)cc1`, the GI50 is 0.877 µM and the TGI was 5.56 µM.
For `CCOCC(=O)N[C@H]1CCc2cc(OC)c(OC)c(OC)c2-c2ccc(OC)c(=O)cc21` the same measures were under 0.01 µM and over 100 µM.
For `CC(C)(O)c1cncc(-c2ccc3ncnc(N4CCc5cc(F)c(Cl)cc54)c3c2)c1` the same measures were 0.567 µM and 3.5 µM.
Consider `COc1ccc(-c2onc(N)c2-c2cc(OC)c3c(c2)OCO3)cc1`, for which the GI50 is 0.644 µM and the TGI was found to be 3.15 µM.
In the same order, the values of `Cc1ccc(-c2nc3nc(-c4ccccc4)nc(N4CCCNCC4)c3o2)cc1` are 1.59 µM and 3.35 µM.
On to `O=C(CCc1nnc2sc(-c3ccc(Cl)cc3Cl)nn12)c1nc2ccccc2[nH]1`, for which the GI50 was 0.466 µM and the concentration for total growth inhibition (TGI) was determined as 1.49 µM.
For the compound `O=C(O)CCNC1CCCCC1`, the GI50 is over 100 µM and the TGI is over 100 µM.
On to `CC/C=C\C[C@@H](O)C/C=C1/C(=O)C=C[C@H]1C/C=C\CCCC(=O)OC`, for which the GI50 was 2.12 µM and the concentration for total growth inhibition (TGI) was 4.79 µM.
In the case of `O=C(O)/C=C(\c1nc2ccc([N+](=O)[O-])cc2[nH]1)c1cc(Cl)ccc1O`, the GI50 is 2.09 µM and the TGI is 9.96 µM.
As for `COc1ccc(CNS(=O)(=O)/N=C2\NC(=O)NC2=C(Cl)Cl)cc1`, the GI50 is 0.18 µM and the TGI came out at 0.65 µM.
As to `Nc1nc2c(nnn2C2CC(O)C(CO)O2)c(=O)[nH]1` (centres undefined), the GI50 is 0.825 µM and the TGI amounted to 7.2 µM.
In the same order, the values of `Cc1cc(-c2cnn3c(NCC4CC(C)(O)C4)cc(Oc4cccnc4)nc23)ccc1C(=O)NC1CC1` (centres undefined) are 2.08 µM and over 100 µM.
In the case of `COC(=O)Nc1nc2ccc(Oc3ccc(NC(=O)Nc4cc(C(F)(F)F)ccc4F)cc3)cc2s1`, the GI50 is 9.11 µM and the TGI is over 25 µM.
For `CCN(CC)CCCC(C)Nc1c2ccc(Cl)cc2nc2ccc(O)cc12` (centres undefined), the GI50 was 1.31 µM and the TGI worked out at 2.91 µM.
For `O=C1Nc2ccccc2C1(c1ccc(O)cc1)c1ccc(O)cc1` the same measures were 0.227 µM and 14.1 µM.
For `C#C[C@]1(O)CC[C@H]2[C@@H]3CC=C4c5sc(Nc6ncccc6C)nc5CC[C@]4(C)[C@H]3CC[C@@]21C` the same measures were 1.25 µM and 3.23 µM.
In the same order, the values of `CCCCCCCCn1ccc2cc(NC(=O)Cn3cc(CN4CCCC4)nn3)ccc21` are 1.63 µM and 3.17 µM.
For `COc1cc2cc(Oc3ccc(NC(=O)Nc4ccc(Cl)c(C(F)(F)F)c4)cc3)c(C)nc2cc1OCCN1CCOCC1`, the GI50 was 0.474 µM and the TGI worked out at 2.06 µM.
Regarding `CS(=O)(=O)CCNCc1ccc(-c2ccc3ncnc(Nc4ccc(OCc5ccccc5)cc4)c3c2)o1`, the 50% growth inhibitory concentration (GI50) was 0.146 µM and the TGI worked out at 1.62 µM.

Values taken from PubChem BioAssay (NCI).
